The text below walks through data of patent US12370166B2, “Pentadecanoylcarnitine for treatment of conditions related to the quality of aging and longevity” (EPITRACKER, INC., priority 2021, dated 2025).

Assay [1] relates to human cell systems mimicking various disease states. Conditions: cited from earlier work.
A further assay concerns breast cancer cells. Conditions: cited from earlier work.
For assay [2], the system named is diet-induced obese mice modeling type 2 diabetes. Conditions: daily oral, approximately 12 weeks; cited from earlier work.
A further assay has as its system mitochondrial function. Conditions: cited from earlier work.
The subject of another assay is red blood cell membranes. Conditions: cited from earlier work.
A further assay relates to BT cell system. Put plainly: Human primary cell phenotypic profiling, BT cell system (asthma, oncology, autoimmunity, allergy). The format is cell-based. Conditions: 6.7 μM stated for pentadecanoylcarnitine. Here is the method: (§1) Methods for this human primary cell phenotypic profiling study were those previously described (Venn-Watson, S., Lumpkin, R., Dennis, E. A. Efficacy of dietary odd-chain saturated fatty acid pentadecanoic acid parallels broad associated health benefits in humans: could it be essential? Sci Rep 10:8161 (2020)). Significant activities of pentadecanoylcarnitine were those that were equal to or greater than 0.1|log 10| at 6.7 μM. Biomarkers with significant changes caused by pentadecanoylcarnitine were compared with results from the same study using pentadecanoic acid (C15:0).

Assay [3] has as its system in vivo model of nonalcoholic fatty liver disease. Conditions: daily supplementation over 11 weeks; cited from earlier work.
For a further assay, the target named is Serotonin Transporter (Homo sapiens, UniProt P31645). Description: Transporter pharmacological activity, blocker. The format is biochemical. Conditions: for IC50: read-out: RC50 (IC50). Here is the method:
Methods for this study have been previously described (Venn-Watson, S., Lumpkin, R., Dennis, E. A. Efficacy of dietary odd-chain saturated fatty acid pentadecanoic acid parallels broad associated health benefits in humans: could it be essential? Sci Rep 10:8161 (2020)). Significant activities of pentadecanoylcarnitine were those tagged as having maximum pharmacological activities that were greater than or equal to 70% that of the internal control between the concentrations of 1 to 20 μM. Significant pharmacological activities caused by pentadecanoylcarnitine were compared with results from the same assays using pentadecanoic acid (C15:0).

Assay [4] relates to peroxisome proliferator-activated receptor (PPAR) α/δ. Conditions: cited from earlier work.
The test system of assay [5] is AMP-activated protein kinase (AMPK). Conditions: cited from earlier work.
The subject of a further assay is 4H cell system. Description: Human primary cell phenotypic profiling, 4H cell system (autoimmunity, allergy, asthma). Conditions: 6.7 μM stated for pentadecanoylcarnitine, NS = not significant. The class given is cell-based. Here is the method:
as §1

The next assay deals with MyoF cell system. Put plainly: Human primary cell phenotypic profiling, MyoF cell system (wound healing, matrix remodeling, fibrosis). The class given is cell-based. Conditions: 6.7 μM stated for pentadecanoylcarnitine. Here is the method:
as §1

The next assay deals with LPS cell system. Put plainly: Human primary cell phenotypic profiling, LPS cell system (chronic inflammation, cardiovascular disease). The class given is cell-based. Conditions: 6.7 μM stated for pentadecanoylcarnitine. Here is the method: as §1
The test system of another assay is CASM3C cell system. Put plainly: Human primary cell phenotypic profiling, CASM3C cell system (cardiovascular inflammation, restenosis). The format is cell-based. Conditions: 6.7 μM stated for pentadecanoylcarnitine. Here is the method:
as §1

A further assay concerns BE3C cell system. Description: Human primary cell phenotypic profiling, BE3C cell system (COPD, lung inflammation). The format is cell-based. Conditions: 6.7 μM stated for pentadecanoylcarnitine. Here is the method:
as §1

A further assay relates to SAg cell system. Description: Human primary cell phenotypic profiling, SAg cell system (chronic inflammation, autoimmune disease). Conditions: 6.7 μM stated for pentadecanoylcarnitine. The class given is cell-based. Here is the method: as §1
The subject of the next assay is /IMphg cell system. Description: Human primary cell phenotypic profiling, /IMphg cell system (chronic inflammation, restenosis, cardiovascular disease). The format is cell-based. Conditions: 6.7 μM stated for pentadecanoylcarnitine. Here is the method:
as §1

A further assay concerns KF3CT cell system. Put plainly: Human primary cell phenotypic profiling, KF3CT cell system (dermatitis, psoriasis). The class given is cell-based. Conditions: 6.7 μM stated for pentadecanoylcarnitine. Here is the method:
as §1

Another assay deals with HDF3CGF cell system. Put plainly: Human primary cell phenotypic profiling, HDF3CGF cell system (fibrosis, chronic inflammation). Conditions: 6.7 μM stated for pentadecanoylcarnitine. The class given is cell-based. Here is the method:
as §1

[6] abbreviates: Blocker, positive control Clomipramine.

Chain of Serotonin Transporter (P31645 whole entry): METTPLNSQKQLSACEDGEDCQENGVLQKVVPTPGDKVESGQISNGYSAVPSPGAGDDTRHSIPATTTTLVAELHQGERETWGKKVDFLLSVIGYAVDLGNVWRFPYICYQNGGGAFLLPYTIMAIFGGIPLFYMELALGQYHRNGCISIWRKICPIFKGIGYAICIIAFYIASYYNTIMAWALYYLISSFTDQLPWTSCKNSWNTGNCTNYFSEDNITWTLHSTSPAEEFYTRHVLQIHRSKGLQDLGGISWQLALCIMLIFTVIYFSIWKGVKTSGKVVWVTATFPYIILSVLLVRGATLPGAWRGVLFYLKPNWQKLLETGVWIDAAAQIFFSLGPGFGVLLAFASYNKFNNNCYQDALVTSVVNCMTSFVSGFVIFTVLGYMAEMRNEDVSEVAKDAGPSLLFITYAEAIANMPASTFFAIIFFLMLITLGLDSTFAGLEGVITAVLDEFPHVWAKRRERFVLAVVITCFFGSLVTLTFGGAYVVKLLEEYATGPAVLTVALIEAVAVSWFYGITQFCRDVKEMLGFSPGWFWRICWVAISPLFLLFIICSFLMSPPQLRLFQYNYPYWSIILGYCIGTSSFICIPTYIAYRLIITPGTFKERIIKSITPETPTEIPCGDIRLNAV

In the case of `CCCCCCCCCCCCCCC(=O)O` [Pentadecanoic acid (C15:0), Pentadecanoic acid], the “Properties in human cell systems mimicking various disease states” value in [1] was “anti-inflammatory and antifibrotic properties”. For the same molecule, the “Effect on proliferation of breast cancer cells” value with breast cancer cells was “decrease”. For the same molecule, in assay [2], the “Body weight gain compared to non-supplemented controls” value was “lower”, the “Cholesterol compared to non-supplemented controls” value is listed as “lower”, the “Glucose compared to non-supplemented controls” value was “lower” and the “Pro-inflammatory cytokines compared to non-supplemented controls” value is recorded as “lower”. In addition, in the assay on mitochondrial function, the “Effect on mitochondrial function” value is listed as “repair”. In the assay on red blood cell membranes, the “Effect on stability of red blood cell membranes” value is recorded as “improve”. Further, in the assay with BT cell system, the sIL-6 biomarker change result is reported as “+0.12 log 10” and the sTNF-α biomarker change entry is reported as “+0.14 log 10”. Also, in assay [3], the Anemia result is on record as “attenuated”, the Cholesterol entry is recorded as “lowered”, the Inflammation entry is recorded as “lowered” and the Liver fibrosis entry is “attenuated”. In assay [3], the Triglycerides entry is “lowered”. On Serotonin Transporter (setting [6]), the IC50 was greater than 20 µM. Besides, on Serotonin Transporter (read-out: Max Response (%) Compared to Positive Control), the Emax amounted to 1%. The “PPAR α/δ agonist activity” value in assay [4] is “dual, partial”. Further, the AMPK activity entry in assay [5] is “activator”.

In turn, `CCCCCCCCCCCCCCC(=O)O[C@H](CC(=O)[O-])C[N+](C)(C)C` [Pentadecanoylcarnitine, pentadecanoylcarnitine] showed a VEGFR2 biomarker change in the assay on 4H cell system of −0.11 log 10. For the same molecule, the “α-SM Actin biomarker change” value in the assay on MyoF cell system is given as −0.26 log 10. The “Tissue Factor biomarker change” value in the assay with LPS cell system is recorded as “+0.11 log 10”. In the assay with BT cell system, the sIL-6 biomarker change was −0.13 log 10 and the sTNF-α biomarker change was −0.10 log 10. In the assay on CASM3C cell system, the Proliferation change result is given as “+0.10 log 10”. Further, the “Max Response (%) Compared to Positive Control” value at Serotonin Transporter (Blocker, positive control Clomipramine, 1 to 20 μM) was 83%. For the same molecule, the IC50 on Serotonin Transporter (setting [6]) amounted to 7.4 µM. Further, the “Pharmacological activity at SERT” value at Serotonin Transporter (at approximately 1 to 20 μM) was “blocker”. In the assay on BE3C cell system, the CXCL8/IL-8 biomarker change is given as −0.21 log 10, the CXCL9/MIG biomarker change is listed as −0.60 log 10, the CXCL10/IP-10 biomarker change is −0.10 log 10 and the CXCL11/I-TAC biomarker change was −0.54 log 10. Further, in the assay on BE3C cell system, the HLA-DR biomarker change is −0.63 log 10, the IL-1a biomarker change is on record as −0.19 log 10, the MMP-1 biomarker change is reported as −0.27 log 10 and the MMP-9 biomarker change is reported as −0.34 log 10. Besides, in the assay with BE3C cell system, the PAI-1 biomarker change is listed as −0.24 log 10, the tPA biomarker change was −0.43 log 10, the uPA biomarker change is given as −0.28 log 10 and the uPAR biomarker change was −0.12 log 10. Further, in the assay on SAg cell system, the “B-Cell Proliferation change” value is on record as −0.17 log 10 and the E-Selectin biomarker change is given as −0.11 log 10. In the assay on /IMphg cell system, this molecule yielded an MCP-1 biomarker change of −0.25 log 10 and a sIL-10 biomarker change of −0.13 log 10. In the assay on KF3CT cell system, this molecule had a CXCL10/IP-10 biomarker change of −0.10 log 10. For the same molecule, in the assay with HDF3CGF cell system, the MMP-1 biomarker change is listed as −0.12 log 10.
